Source: patent US6528528B2 (Warner-Lambert Company, priority 1997, dated 2003)
Read-outs that look alike come from different tables or passages of the source.

Columns and labels:
[1] = biological target: T1, rabbit reticulocyte 15-LO (Oryctolagus cuniculus, UniProt P12530); assay: Rabbit Reticulocyte 15-LO Assay (h15LO); format: biochemical; settings: for IC50: 2U rabbit reticulocyte 15-LO, 174 μM linoleic acid, 15 minutes at 4° C.
T1 construct: Fifteen-lipoxygenase was obtained from phenylhydrazine-treated rabbits and purified per the method of Rapoport; from tissue; host or cells: reticulocytes of phenylhydrazine-treated rabbits
T1 sequence (P12530 1-663): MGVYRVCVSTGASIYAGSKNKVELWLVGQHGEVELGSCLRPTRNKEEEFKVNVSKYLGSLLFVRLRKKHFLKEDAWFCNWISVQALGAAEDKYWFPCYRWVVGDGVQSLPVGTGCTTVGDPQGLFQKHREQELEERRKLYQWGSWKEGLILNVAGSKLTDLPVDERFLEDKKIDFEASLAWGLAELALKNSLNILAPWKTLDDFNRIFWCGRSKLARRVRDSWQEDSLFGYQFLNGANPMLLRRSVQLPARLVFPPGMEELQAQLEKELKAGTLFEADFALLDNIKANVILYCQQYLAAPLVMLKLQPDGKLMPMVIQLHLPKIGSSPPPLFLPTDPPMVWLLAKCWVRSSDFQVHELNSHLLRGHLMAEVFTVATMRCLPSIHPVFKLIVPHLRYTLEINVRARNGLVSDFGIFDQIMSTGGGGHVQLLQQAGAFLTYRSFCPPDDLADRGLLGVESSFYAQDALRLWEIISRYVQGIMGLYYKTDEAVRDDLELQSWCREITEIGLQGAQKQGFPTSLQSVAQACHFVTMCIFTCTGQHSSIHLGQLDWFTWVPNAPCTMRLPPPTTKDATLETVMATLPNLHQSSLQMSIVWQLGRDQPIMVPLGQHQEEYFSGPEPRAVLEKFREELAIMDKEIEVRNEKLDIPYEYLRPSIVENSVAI
Method in brief: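 Linoleic acid oxidation to 13-HPODE measured at 4° C. over 15 minutes, using 174 μM substrate and 2U enzyme purified from phenylhydrazine-treated rabbits in PBS/0.2% Na cholate. Product peak areas calibrated with authentic 13-HODE; inhibition expressed versus maximal reaction.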

[2] = 0.25 h, Table 2, read-out: h15LO % @ 10 μM

IC50 ([1]; Table 2) [nM] | melting point [°C] | further results | SMILES
28 | 195 to 197 | – | COc1ccc(C(=O)Nc2ccccc2)cc1NS(=O)(=O)c1cccc(C)c1 [Example 138, 3-(Toluene-3-sulfonylamino)-4-methoxy-N-phenyl-benzamide]
410 | 184 to 185 | – | CCOc1ccc(C(=O)Nc2ccccc2)cc1Nc1cccc(C(F)(F)F)c1 [Example 42, 4-Ethoxy-3-(3-trifluoromethyl-phenylamino)-N-phenyl-benzamide]
48 | 200 to 202 | – | COc1ccc(C(=O)Nc2ccccc2)cc1NS(=O)(=O)c1ccc(C)cc1 [Example 124, 3-(4-Methyl-benzenesulfonylamino)-4-methoxy-N-phenyl-benzamide]
44 | 183 to 186 | – | COc1ccc(NC(=O)c2ccc(Cl)c(Cl)c2)cc1NC(=S)Nc1cc(Cl)cc(Cl)c1 [Example 115, 3,4-Dichloro-N-{3-[3-(3,5-dichlorophenyl)-thioureido]-4-methoxyphenyl}-benzamide]
151 | 198 to 200 | – | COc1ccc(C(=O)Nc2ccccc2)cc1NS(=O)(=O)c1ccc(F)cc1F [Example 137, 3-(2,4-Difluoro-benzenesulfonylamino)-4-methoxy-N-phenyl-benzamide]
28 | 166 to 169 | – | COc1ccc(C(=O)Nc2ccc(F)c(F)c2)cc1Nc1cccc(C(F)(F)F)c1 [Example 48, 4-Methoxy-3-(3-trifluoromethyl-phenylamino)-N-(3,4-difluorophenyl)-benzamide]
14.9 | 183 to 185 | – | COc1ccc(C(=O)Nc2ccccc2)cc1NC(=S)Nc1cccc(C#N)c1 [Example 74, 3-[3-(3-Cyanophenyl)-thioureido]-4-methoxy-N-phenyl-benzamide]
11 | 165 to 168 | – | COc1ccc(C(=O)Nc2ccccc2)cc1NC(=S)Nc1cccc(Cl)c1 [Example 61, 3-[3-(3-Chlorophenyl)-thioureido]-4-methoxy-N-phenyl-benzamide]
63 | 216 | – | COc1ccc(C(=O)Nc2ccccc2)cc1NS(=O)(=O)Cc1ccccc1 [Example 135, 3-Phenylmethanesulfonylamino-4-methoxy-N-phenyl-benzamide]
24 | 193 to 195 | – | COc1ccc(C(=O)Nc2ccccc2)cc1NC(=S)Nc1ccc(S(N)(=O)=O)cc1 [Example 90, 4-Methoxy-N-phenyl-3-[3-(4-sulfamoyl-phenyl)-thioureido]-benzamide]
– | 111 to 113 | inhibition at 10 µM ([1]; Table 1, read-out: h15LO % Inhibition at 10 μM): 65% | CCc1ccc(C(=O)Nc2ccccc2)cc1N [Example 17, 3-Amino-4-ethyl-N-phenyl-benzamide]
23 | 160 to 161 | – | COc1ccc(C(=O)Nc2ccccc2)cc1Nc1cccc(C)c1 [Example 32, 3-(3-Methyl-phenylamino)-4-methoxy-N-phenyl-benzamide]
290 | 166 to 167 | – | CCc1ccc(C(=O)Nc2ccccc2)cc1NC(=S)Nc1cccc(C(F)(F)F)c1 [Example 110, 4-Ethyl-N-phenyl-3-[3-(3-trifluoromethylphenyl)-thioureido]-benzamide]
56 | 170 to 171 | – | COc1ccc(C(=O)Nc2ccccc2)cc1NC(=S)Nc1ccc(OC)c(OC)c1 [Example 72, 3-[3-(3,4-Dimethoxyphenyl)-thioureido]-4-methoxy-N-phenyl-benzamide]
582 | 250 to 252 | – | COc1ccc(C(=O)Nc2ccccc2)cc1NS(=O)(=O)c1cn(C)cn1 [Example 141, 3-(1-Methyl-1H-imidazole-4-sulfonylamino)-4-methoxy-N-phenyl-benzamide]
49 | 222 to 228 | – | COc1ccc(C(=O)Nc2ccccc2)cc1NS(=O)(=O)c1cc(Cl)cc(Cl)c1 [Example 118, 3-(3,5-Dichloro-benzenesulfonylamino)-4-methoxy-N-phenyl-benzamide]
165 | 186 to 187 | – | COc1ccc(NC(=O)c2ccc(O)c(Nc3cc(Cl)cc(Cl)c3)c2)cc1 [Example 57, 3-(3,5-Dichloro-phenylamino)-4-hydroxy-N-(4-methoxyphenyl)-benzamide]

IC50 ([1]; Table 2) [nM] | melting point [°C] | further results | SMILES
10 | 168 to 170 | – | COc1ccc(C(=O)Nc2ccccc2)cc1Nc1cccc(Cl)c1 [Example 31, 3-(3-Chloro-phenylamino)-4-methoxy-N-phenyl-benzamide]
170 | 155 to 160 | – | COc1ccc(C(=O)Nc2ccc(C)c(C)c2)cc1NC(=S)Nc1cccc(C)c1 [Example 102, N-(3,4-Dimethylphenyl)-4-methoxy-3-(3-m-tolyl-thioureido)-benzamide]
20 | 199 to 200 | – | COc1ccc(C(=O)Nc2ccc(F)cc2)cc1Nc1cc(C)cc(C)c1 [Example 46, 4-Methoxy-3-(3,5-dimethyl-phenylamino)-N-(4-fluorophenyl)-benzamide]
9 | 180 to 183 | – | COc1ccc(C(=O)Nc2ccc(F)c(F)c2)cc1NC(=S)Nc1cc(Cl)cc(Cl)c1 [Example 107, 3-[3-(3,5-Dichlorophenyl)-thioureido]-N-(3,4-difluoro-phenyl)-4-methoxy-benzamide]
– | 130 to 131 | inhibition at 10 µM [1, 2]: 54% | COc1ccc(C(=O)Oc2ccccc2)cc1Nc1ccccc1 [Example 55, 3-(Phenylamino)-4-methoxybenzoic Acid, Phenyl Ester]
– | 108 to 110 | IC50 ([1]; Table 1): 1100 nM | CCc1ccc(C(=O)Nc2ccc(F)c(F)c2)cc1N [Example 19, 3-Amino-4-ethyl-N-(3,4-difluorophenyl)-benzamide]
34 | 184 to 185 | – | COc1ccc(C(=O)Nc2cccc(Cl)c2)cc1NC(=S)Nc1ccc(F)cc1 [Example 108, N-(3-Chlorophenyl)-3-[3-(4-fluorophenyl)-thioureido]-4-methoxy-benzamide]
– | 151 to 152 | h15LO, value given as bare % ([1]; Table 2, concentration not given): 93.61% | CCCCCCCCCCCCS(=O)(=O)Nc1cc(C(=O)Nc2ccc(Cl)c(Cl)c2)ccc1OC [Example 194, 3-(Dodecane-1-sulfonylamino)-4-methoxy-N-(3,4-dichloro-phenyl)-benzamide]
167 | 107 to 109 | – | COc1ccc(C(=O)Nc2ccccc2)cc1NS(=O)(=O)c1ccccc1Cl [Example 127, 3-(2-Chlorobenzenesulfonylamino)-4-methoxy-N-phenyl-benzamide]
25 | 221 to 222 | – | COc1ccc(C(=O)Nc2ccccc2)cc1Nc1ccc(C2=NC(C)(C)CO2)cc1 [Example 44, 3-[4-(4,4-Dimethyl-4,5-dihydro-oxazol-2-yl)-phenylamino]-4-methoxy-N-phenyl-benzamide]
609 | 260 to 261 | – | COc1ccc(C(=O)Nc2ccccc2)cc1NS(=O)(=O)c1sc(NC(C)=O)nc1C [Example 131, 3-(2-Acetylamino-4-methylthiazole-5-sulfonylamino)-4-methoxy-N-phenyl-benzamide]
– | 153 to 154 | inhibition at 10 µM [1, 2]: 48% | COc1ccccc1Nc1cccc(C(=O)Nc2ccccc2)c1 [Example 27, 3-(2-Methoxy-phenylamino)-N-phenyl-benzamide]
46 | 173 to 175 | – | O=C(Nc1ccccc1)c1ccc(F)c(NC(=S)Nc2cc(Cl)cc(Cl)c2)c1 [Example 96, 3-[3-(3,5-Dichlorophenyl)-thioureido]-4-fluoro-N-phenyl-benzamide]
11 | 203 to 205 | – | COc1ccc(C(=O)Nc2ccccc2)cc1NC(=S)Nc1cc(C)cc(C)c1 [Example 99, 3-[3-(3,5-Dimethylphenyl)-thioureido]-4-methoxy-N-phenyl-benzamide]
127 | 175 to 182 | – | COc1ccc(NC(=O)c2ccc(OC)c(NC(=S)Nc3cc(Cl)cc(Cl)c3)c2)cc1 [Example 79, 3-[3-(3,5-Dichlorophenyl)-thioureido]-4-methoxy-N-(4-methoxy-phenyl)-benzamide]
260 | 218 to 219 | – | COc1ccc(NC(=O)Nc2ccccc2)cc1NC(=S)Nc1cc(Cl)cc(Cl)c1 [Example 86, 1-{3-[3-(3,5-Dichlorophenyl)-thioureido]-4-methoxyphenyl}-3-phenyl-urea]
17 | 180 to 185 | – | COc1ccc(C(=O)Nc2ccc(Cl)cc2)cc1NC(=S)Nc1cc(Cl)cc(Cl)c1 [Example 92, N-(4-Chlorophenyl)-3-[3-(3,5-dichlorophenyl)-thioureido]-4-methoxy-benzamide]
